Earlier results in patent publication US10980792B2, “Formulations of Cabozantinib” (Zhuhai Beihai Biotech Co., Ltd., priority 2016, dated 2021).

Tests used:
[1] = tested on: human plasma

## COc1cc2nccc(Oc3ccc(NC(=O)C4(C(=O)Nc5ccc(F)cc5)CC4)cc3)c2cc1OC [Cabozantinib, cabozantinib]
[1]
  protein bound in human plasma: ≥ 99.7%
other
  solubility in water: practically insoluble
